Measurements reported in ChEMBL document CHEMBL5233215, “Recent developments of chalcones as potential antibacterial agents in medicinal chemistry” (Eur J Med Chem, 2020).
Values after ≈ are worked out from the molar mass of the structure shown.

Legend:
Type in all cases: functional
Bacillus anthracis = test: Antibacterial activity Bacillus anthracis Sterne 34F2 assessed as inhibition of bacterial growth by CLSI based microbroth dilution assay
Staphylococcus aureus [1] = test: Antibacterial activity methicillin-sensitive Staphylococcus aureus ATCC 29213 assessed as inhibition of bacterial growth by CLSI based microbroth dilution assay
Staphylococcus aureus [2] = test: Antibacterial activity methicillin-resistant Staphylococcus aureus USA300 assessed as inhibition of bacterial growth by CLSI based microbroth dilution assay
Bacillus subtilis [3] = test: Antibacterial activity Bacillus subtilis NCIM 2063 assessed as inhibition of bacterial growth incubated for 24 hrs by serial dilution technique
Escherichia coli [4] = test: Antibacterial activity Escherichia coli NCIM 2918 assessed as inhibition of bacterial growth incubated for 24 hrs by serial dilution technique
Staphylococcus aureus [5] = test: Antibacterial activity Staphylococcus aureus NCIM 2079 assessed as inhibition of bacterial growth incubated for 24 hrs by serial dilution technique
Bacillus subtilis [6] = test: Antibacterial activity Bacillus subtilis assessed as inhibition of bacterial growth after 18 hrs by broth dilution method
Escherichia coli [7] = test: Antibacterial activity Escherichia coli assessed as inhibition of bacterial growth after 18 hrs by broth dilution method
Bacillus cereus = test: Antibacterial activity Bacillus cereus assessed as inhibition of bacterial growth after 18 hrs by broth dilution method
[8] = test system: Pectobacterium carotovorum; test: Antibacterial activity Pectobacterium carotovorum assessed as inhibition of bacterial growth after 18 hrs by broth dilution method
Staphylococcus aureus [9] = test: Antibacterial activity Staphylococcus aureus assessed as inhibition of bacterial growth after 18 hrs by broth dilution method
Staphylococcus aureus [10] = test: Antibacterial activity methicillin-resistant Staphylococcus aureus MRSA B-10760 assessed as inhibition of bacterial growth incubated for 16 to 24 hrs by broth microdilution assay; conditions: time 16-24 hrs
Staphylococcus aureus [11] = test: Antibacterial activity methicillin-resistant Staphylococcus aureus MRSA ST-5457 assessed as inhibition of bacterial growth incubated for 16 to 24 hrs by broth microdilution assay; conditions: time 16-24 hrs
Staphylococcus aureus [12] = test: Antibacterial activity methicillin-resistant Staphylococcus aureus MRSA ST-2071 assessed as inhibition of bacterial growth incubated for 16 to 24 hrs by broth microdilution assay; conditions: time 16-24 hrs
Staphylococcus aureus [13] = test: Antibacterial activity methicillin-resistant Staphylococcus aureus MRSA P-6642 assessed as inhibition of bacterial growth incubated for 16 to 24 hrs by broth microdilution assay; conditions: time 16-24 hrs
Staphylococcus aureus [14] = test: Antibacterial activity methicillin-resistant Staphylococcus aureus MRSA ST-3151 assessed as inhibition of bacterial growth incubated for 16 to 24 hrs by broth microdilution assay; conditions: time 16-24 hrs
Staphylococcus aureus [15] = test: Antibacterial activity methicillin-resistant Staphylococcus aureus MRSA ST-10342 assessed as inhibition of bacterial growth incubated for 16 to 24 hrs by broth microdilution assay; conditions: time 16-24 hrs
Staphylococcus aureus [16] = test: Antibacterial activity methicillin-resistant Staphylococcus aureus MRSA ST-2438 assessed as inhibition of bacterial growth incubated for 16 to 24 hrs by broth microdilution assay; conditions: time 16-24 hrs
Staphylococcus aureus [17] = test: Antibacterial activity methicillin-resistant Staphylococcus aureus MRSA ST-1745 assessed as inhibition of bacterial growth incubated for 16 to 24 hrs by broth microdilution assay; conditions: time 16-24 hrs
Staphylococcus aureus [18] = test: Antibacterial activity methicillin-resistant Staphylococcus aureus MRSA B-10732 assessed as inhibition of bacterial growth incubated for 16 to 24 hrs by broth microdilution assay; conditions: time 16-24 hrs
Staphylococcus aureus [19] = test: Antibacterial activity methicillin-resistant Staphylococcus aureus MRSA P-8029 assessed as inhibition of bacterial growth incubated for 16 to 24 hrs by broth microdilution assay; conditions: time 16-24 hrs
Klebsiella pneumoniae = test: Antibacterial activity Klebsiella pneumoniae assessed as inhibition of bacterial growth incubated for 12 to 18 hrs by NCCLS protocol based microdilution method; conditions: time 12-18 hrs
Staphylococcus aureus [20] = test: Antibacterial activity Staphylococcus aureus assessed as inhibition of bacterial growth incubated for 12 to 18 hrs by NCCLS protocol based microdilution method; conditions: time 12-18 hrs
Staphylococcus aureus [21] = test: Antibacterial activity methicillin-resistant Staphylococcus aureus OM584 assessed as inhibition of bacterial growth by liquid dilution method
Staphylococcus aureus [22] = test: Antibacterial activity methicillin-resistant Staphylococcus aureus OM481 assessed as inhibition of bacterial growth by liquid dilution method
Staphylococcus aureus [23] = test: Antimicrobial activity against Staphylococcus aureus MTCC 1430 assessed as bacterial growth inhibition incubated for 24 hrs by broth micro dilution method
Escherichia coli [24] = test: Antimicrobial activity against Escherichia coli MTCC 1573 assessed as bacterial growth inhibition incubated for 24 hrs by broth micro dilution method
Bacillus subtilis [25] = test: Antimicrobial activity against Bacillus subtilis MTCC 441 assessed as bacterial growth inhibition incubated for 24 hrs by broth micro dilution method
Pseudomonas aeruginosa = test: Antimicrobial activity against Pseudomonas aeruginosa MTCC 424 assessed as bacterial growth inhibition incubated for 24 hrs by broth micro dilution method
Staphylococcus aureus [26] = test: Antibacterial activity methicillin-sensitive Staphylococcus aureus ATCC 25923 assessed as inhibition of bacterial growth after 24 hrs by microdilution broth method
Staphylococcus aureus [27] = test: Antibacterial activity methicillin-resistant Staphylococcus aureus ATCC 33591 assessed as inhibition of bacterial growth after 24 hrs by microdilution broth method
Micrococcus luteus = test: Antibacterial activity Micrococcus luteus NBRC 333 assessed as inhibition of bacterial growth after 48 hrs by two fold dilution method
Bacillus subtilis [28] = test: Antibacterial activity Bacillus subtilis NBRC 3757 assessed as inhibition of bacterial growth after 48 hrs by two fold dilution method
[29] = test system: Staphylococcus epidermidis; test: Antibacterial activity Staphylococcus epidermidis NBRC 12993 assessed as inhibition of bacterial growth after 48 hrs by two fold dilution method

Cc1cc(C(=O)/C=C/c2ccc(N3CCCCC3)cc2)ccc1O
MIC (Bacillus anthracis): 1.56 µg/mL (≈ 4.85 µM)

CC1CCN(c2ccc(/C=C/C(=O)c3ccc(O)cc3O)cc2)CC1
MIC (Bacillus anthracis): 1.56 µg/mL (≈ 4.62 µM) | MIC (Staphylococcus aureus [1]): 6.25 µg/mL (≈ 18.5 µM) | MIC (Staphylococcus aureus [2]): 3.12 µg/mL (≈ 9.26 µM)

O=C(/C=C/c1ccc(Br)cc1)c1ccc(Cl)cc1
MIC (Bacillus subtilis [3]): 1000 µg/mL (≈ 3110 µM) | MIC (Escherichia coli [4]): 1000 µg/mL (≈ 3110 µM) | MIC (Staphylococcus aureus [5]): 1000 µg/mL (≈ 3110 µM)

COc1cccc(/C=C/C(=O)c2ccc(O)cc2O)c1OC
MIC (Bacillus subtilis [6]): 125 µg/mL (≈ 416 µM) | MIC (Escherichia coli [7]): 62.5 µg/mL (≈ 208 µM) | MIC (Bacillus cereus): 62.5 µg/mL (≈ 208 µM) | MIC [8]: 125 µg/mL (≈ 416 µM) | MIC (Staphylococcus aureus [9]): 62.5 µg/mL (≈ 208 µM)

COc1ccc(/C=C/C(=O)c2ccc(O)c(C)c2)cc1
MIC (Bacillus anthracis): 12.5 µg/mL (≈ 46.6 µM)

O=C(/C=C/c1ccc(O)c(O)c1)c1ccc(-c2ccccc2)cc1
MIC (Staphylococcus aureus [10]): 25 µg/mL (≈ 79 µM) | MIC (Staphylococcus aureus [11]): 25 µg/mL (≈ 79 µM) | MIC (Staphylococcus aureus [12]): 25 µg/mL (≈ 79 µM) | MIC (Staphylococcus aureus [13]): 25 µg/mL (≈ 79 µM) | MIC (Staphylococcus aureus [14]): 25 µg/mL (≈ 79 µM) | MIC (Staphylococcus aureus [15]): 25 µg/mL (≈ 79 µM) | MIC (Staphylococcus aureus [16]): 25 µg/mL (≈ 79 µM) | MIC (Staphylococcus aureus [17]): 25 µg/mL (≈ 79 µM) | MIC (Staphylococcus aureus [18]): 25 µg/mL (≈ 79 µM) | MIC (Staphylococcus aureus [19]): 25 µg/mL (≈ 79 µM)

Nc1ccccc1C(=O)CC(c1ccc(Cl)cc1)S(=O)(=O)c1ccccc1 (stereo not given)
MIC (Klebsiella pneumoniae): 25.5 µg/mL (≈ 63.8 µM) | MIC (Staphylococcus aureus [20]): 1.95 µg/mL (≈ 4.88 µM)

CCN(CC)c1ccc(/C=C/C(=O)c2ccc(O)cc2O)cc1
MIC (Bacillus anthracis): 3.12 µg/mL (≈ 10 µM) | MIC (Staphylococcus aureus [1]): 6.25 µg/mL (≈ 20.1 µM) | MIC (Staphylococcus aureus [2]): 3.12 µg/mL (≈ 10 µM)

COc1cc(C(=O)/C=C/c2ccc(O)cc2)ccc1O
MIC (Staphylococcus aureus [10]): 12.5 µg/mL (≈ 46.2 µM) | MIC (Staphylococcus aureus [11]): 12.5 µg/mL (≈ 46.2 µM) | MIC (Staphylococcus aureus [12]): 12.5 µg/mL (≈ 46.2 µM) | MIC (Staphylococcus aureus [13]): 12.5 µg/mL (≈ 46.2 µM) | MIC (Staphylococcus aureus [14]): 12.5 µg/mL (≈ 46.2 µM) | MIC (Staphylococcus aureus [15]): 12.5 µg/mL (≈ 46.2 µM) | MIC (Staphylococcus aureus [16]): 12.5 µg/mL (≈ 46.2 µM) | MIC (Staphylococcus aureus [17]): 12.5 µg/mL (≈ 46.2 µM) | MIC (Staphylococcus aureus [18]): 12.5 µg/mL (≈ 46.2 µM) | MIC (Staphylococcus aureus [19]): 12.5 µg/mL (≈ 46.2 µM)

CC(C)=CCc1c(O)ccc(C(=O)/C=C/c2ccc(O)c(C)c2)c1O
MIC (Staphylococcus aureus [21]): 8 µg/mL (≈ 23.6 µM) | MIC (Staphylococcus aureus [22]): 16 µg/mL (≈ 47.3 µM)

Cc1c(C(F)(F)F)cc(Cl)c(Cl)c1-n1nnc(C(=O)/C=C/c2cn(-c3ccccc3)nc2-c2ccc(Cl)cc2)c1C
MIC (Staphylococcus aureus [23]): 12.5 µg/mL (≈ 20.3 µM) | MIC (Escherichia coli [24]): 3.12 µg/mL (≈ 5.06 µM) | MIC (Bacillus subtilis [25]): 6.25 µg/mL (≈ 10.1 µM) | MIC (Pseudomonas aeruginosa): 3.12 µg/mL (≈ 5.06 µM)

O=C(/C=C/c1ccc(Cl)cc1)c1ccc(O)cc1
MIC (Staphylococcus aureus [10]): 25 µg/mL (≈ 96.6 µM) | MIC (Staphylococcus aureus [11]): 25 µg/mL (≈ 96.6 µM) | MIC (Staphylococcus aureus [12]): 25 µg/mL (≈ 96.6 µM) | MIC (Staphylococcus aureus [13]): 25 µg/mL (≈ 96.6 µM) | MIC (Staphylococcus aureus [14]): 25 µg/mL (≈ 96.6 µM) | MIC (Staphylococcus aureus [15]): 25 µg/mL (≈ 96.6 µM) | MIC (Staphylococcus aureus [16]): 25 µg/mL (≈ 96.6 µM) | MIC (Staphylococcus aureus [17]): 25 µg/mL (≈ 96.6 µM) | MIC (Staphylococcus aureus [18]): 25 µg/mL (≈ 96.6 µM) | MIC (Staphylococcus aureus [19]): 25 µg/mL (≈ 96.6 µM)

O=C(/C=C/c1ccccc1)c1ccc(O)cc1O [2',4'-DIHYDROXYCHALCONE]
MIC (Staphylococcus aureus [26]): 50 µg/mL (≈ 208 µM) | MIC (Staphylococcus aureus [27]): 100 µg/mL (≈ 416 µM)

CC(C)=CCc1cc(C(=O)/C=C/c2ccc(O)cc2)c(O)cc1O [BROUSSOCHALCONE B]
MIC (Micrococcus luteus): 16 µg/mL (≈ 49.3 µM) | MIC (Bacillus subtilis [28]): 8 µg/mL (≈ 24.7 µM) | MIC [29]: 8 µg/mL (≈ 24.7 µM)

CC(C)=CCc1c(O)ccc(C(=O)/C=C/c2ccc(O)cc2)c1O [ISOBAVACHALCONE]
MIC (Staphylococcus aureus [21]): 8 µg/mL (≈ 24.7 µM) | MIC (Micrococcus luteus): 4 µg/mL (≈ 12.3 µM) | MIC (Bacillus subtilis [28]): 4 µg/mL (≈ 12.3 µM) | MIC (Staphylococcus aureus [22]): 8 µg/mL (≈ 24.7 µM) | MIC [29]: 4 µg/mL (≈ 12.3 µM)

O=C(/C=C/c1ccc(O)cc1)c1ccc(O)cc1O [ISOLIQUIRITIGENIN]
MIC (Bacillus subtilis [6]): 31.3 µg/mL (≈ 122 µM) | MIC (Escherichia coli [7]): 31.3 µg/mL (≈ 122 µM) | MIC (Bacillus cereus): 15.5 µg/mL (≈ 60.5 µM) | MIC [8]: 15.5 µg/mL (≈ 60.5 µM) | MIC (Staphylococcus aureus [9]): 7.8 µg/mL (≈ 30.4 µM)

COc1ccc(C(=O)/C=C/c2ccc(O)cc2)c(O)c1C/C=C(\C)CCC=C(C)C [XANTHOANGELOL F]
MIC (Micrococcus luteus): 64 µg/mL (≈ 157 µM) | MIC (Bacillus subtilis [28]): 64 µg/mL (≈ 157 µM) | MIC [29]: 64 µg/mL (≈ 157 µM)

CC(C)=CCC/C(C)=C/Cc1c(O)ccc(C(=O)/C=C/c2ccc(O)cc2)c1O [XANTHOANGELOL]
MIC (Micrococcus luteus): 4 µg/mL (≈ 10.2 µM) | MIC (Bacillus subtilis [28]): 4 µg/mL (≈ 10.2 µM) | MIC [29]: 4 µg/mL (≈ 10.2 µM)
